# In US7368444B2, “N-carbamoyl nitrogen-containing fused ring compounds and drugs containing these compounds as the active ingredient” (Ono Pharmaceutical Co., Ltd., priority 2002, dated 2008):
# Columns and labels:
# MBR = target: T1, MBR (Rattus norvegicus, UniProt P16257); experiment: Receptor binding: [3H]PK11195 competition binding, rat brain membrane preparation; details: 1 nmol/L [3H]PK11195, rat brain membrane preparation; Ki from IC50 by Cheng & Prusoff
# T1 construct: After male wistar rats were decapitated followed to remove the whole brain, cerebellums were removed; from tissue; host or cells: male Wistar rat whole brain without cerebellum, crude membrane pellet (12,000 g)
# Description: The affinity of the compound to MBR was determined using rat brain membrane preparation. After male wistar rats were decapitated followed to remove the whole brain, cerebellums were removed. They were homogenized in ice-cold 50 mmo/L Tris-HCl buffer (pH7.4) and the homogenates were centrifuged at 12,000 g for 20 min (4° C.), and then their supernatants were discarded. The residual pellets were washed in the same buffer. The pellets resuspended in 50 mmo/L Tris-HCl buffer (pH7.4) and adjusted to about 1 mg/mL were used as rat brain membrane preparations for binding assay. The binding assay was experimented using [3H]PK11195 as a selective MBR ligand.
# To determine the amount of total binding in saturation binding study, membrane preparations, various concentrations of [^3H]PK11195, final concentraion: 0.5 vol % dimethylsulfoxide (DMSO) and 50 mmo/L Tris-HCl buffer (pH7.4) (total volume of 200 μL) were incubated for 1 hour at room temperature. To determine the amount of non-specific binding, 20 μmol/L of PK11195 was added in place of DMSO were incubated for 1 hour. The mixture rapidly was filtrated on GF/B filter soaked with 0.3% polyethyleneimine using cell harvester, which was washed twice with 50 mmo/L Tris-HCl buffer (pH7.4). After drying, the radioactivity on the filer was measured by liquid scintillation counter. The data were analyzed using analysis soft KELL (Ver. 6, BIOSOFT). The dissociation constant (KD value) was determined by using scatchard analyses.
# To determine the amount of total binding in competition binding study, membrane preparation, final concentraion: 1 nmol/L of [^3H]PK11195, final concentraion: 0.5 vol % of DMSO and 50 mmol/L Tris-HCl buffer (pH7.4) (the total volume of 200 μL) were incubated for 1 hour at room temperature. […] The reaction was terminated as above described 1 hour later, then radioactivity on the filer was measured by liquid scintillation counter. […]
# [1] = tested on: rat adrenocortical mitochondria; experiment: Determination of pregnenolone in rat adrenocortical mitochondria; format: biochemical; details: final concentration of the compound 1 μmol/L; compared with DMSO treated group
# Description: The steroid productivity of the present compound was evaluated using rat adrenocortical mitochondria.
# After intraperitoneal administration of 20 mg/mL (1 mL) cycloheximide, 10 IU/mL (0.3 mL) adrenocorticotropic hormone (ACTH) was intraperitoneally administered to Male SD rats 5 minutes later. Then, rats were sacrificed by cervical dislocation 20 minutes later and bilateral adrenal cortexes were extirpated at once. The extirpated adrenal cortexes were homogenized in buffer A (50 mmol/L Tris-HCl, 250 mmol/L Succrose) followed to be centrifuged at 2,000 g for 3 min (4° C.). The supernatant was centrifuged at 12,500 g for 10 min (4° C.). The residual pellet was resuspended in buffer A followed to be centrifuged at 12,500 g for 10 min (4° C.). The pellet was washed again and finally suspended in buffer B (250 mmol/L Succrose, 10 mmol/L potassium phosphate buffer, 15 mmol/L triethanolamine, 20 mmol/L potassium chloride, 5 mmol/L magnesium chloride, 10 μmol/L trilostane, 10 μmol/L SU10603) for experiments. Malate (150 mmol/L), β-NADP^+ (5 mmol/L) and the compound in a total volume of 25 μL were incubated for 5 min at 37° C. […] The radioactivity of the supernatant was measured by liquid scintillation counter. The pregnenolone content in the sample was calculated from standard curve.
Ki (MBR) [nM],Structure (SMILES),pregnenolone content [1]
5.5,"O=C(Nc1ccccc1)N1CCCCc2ccc(F)cc21 [7 (5), 8-fluoro-1-phenylcarbamoyl-2,3,4,5-tetrahydro-1H-1-benzazepine]",
0.09,"O=C(Nc1c(Cl)cccc1Cl)N1CCCCc2ccccc21 [7 (18), 1-(2,6-dichlorophenylcarbamoyl)-2,3,4,5-tetrahydro-1H-1-benzazepine]",
32,"O=C(Nc1ccc(O)cc1)N1CCCCc2ccccc21 [Example 14, 1-(4-hydroxyphenylcarbamoyl)-2,3,4,5-tetrahydro-1H-1-benzazepine]",
,"CCCCCCN(CCCCCC)C(=O)Cc1c(-c2ccc(F)cc2)[nH]c2ccccc12 [FGIN1-27, 2-[2-(4-fluorophenyl)-1H-indol-3-yl]-N,N-dihexylacetamide]",higher than that in DMSO treated group
